In PMC7866972, “Crosstalk of Cancer Signaling Pathways by Cyclic Hexapeptides and Anthraquinones from Rubia cordifolia” (Molecules, 2021):

What was measured:
Assay type in all cases: cell-based
[1] = tested on: Stat3; assay: Stat3 luciferase reporter assay (IL-6 induced); conditions: Homo sapiens, HeLa cells
Method: (§1) Hela cells from ATCC were plated in white opaque 384 well plates at a density of 4300 cells/well in 30 µL of a growth medium (DMEM with 10% FBS and 1% Pen/step). The next day, the medium was aspirated and replaced with DMEM containing 10% FBS. The cells were transfected with respective plasmids using the X-tremeGENE HP transfection reagent (Roche). Luciferase vectors used in this assay are summarized in Table S2, Supporting Information. After 24 h of transfection, the test agents were added to the transfected cells, followed 30 min later by an inducing agent (IL-6 for Stat 3, TGF-beta for Smad, m-wnt3a for Wnt and PMA for AP-1, NF-kB, E2F, Myc, ETS, Notch and Hedgehog). No inducer was added for FoXO, miR-21, and […]. After 4 h or 6 h of induction, the cells were lysed by the addition of the One-Glo luciferase assay system (Promega, Madison, WI, USA). The light output was detected in a Glomax Multi+ detection system with the Instinct Software (Promega, Madison, WI, USA). This luciferase assay determines if the test agent was able to inhibit the activation of cancer-related signaling pathways. In the case of FoxO and mi-R21, the enhanced luciferase activity by the test agent was assessed.

[2] = tested on: Smad; assay: Smad luciferase reporter assay (TGF-beta induced); conditions: Homo sapiens, HeLa cells
Method: as §1

[3] = tested on: Ap-1; assay: AP-1 luciferase reporter assay (PMA induced); conditions: HeLa cells, compared to pTK as control, 4 h, read-out: percentage of luciferase induction Ap-1/PMA
Method: as §1

[4] = tested on: NF-κB; assay: NF-κB luciferase reporter assay (PMA induced); conditions: HeLa cells
Method: as §1

[5] = tested on: E2F; assay: E2F luciferase reporter assay (PMA induced); conditions: Homo sapiens, HeLa cells, compared to pTK as control, 4 h, read-out: percentage of luciferase induction E2F/PMA
Method: as §1

[6] = tested on: Myc; assay: Myc luciferase reporter assay (PMA induced); conditions: Homo sapiens, HeLa cells
Method: as §1

[7] = tested on: Ets; assay: Ets luciferase reporter assay (PMA induced); conditions: Homo sapiens, HeLa cells
Method: as §1

[8] = tested on: Notch; assay: Notch luciferase reporter assay (PMA induced); conditions: Homo sapiens, HeLa cells, compared to pTK as control, 6 h, read-out: percentage of luciferase induction Notch/PMA
Method: as §1

[9] = tested on: FoxO; assay: FoxO luciferase reporter assay (no inducer); conditions: Homo sapiens, HeLa cells, 6 h, read-out: percentage of luciferase induction FoxO/No Induction
Method: as §1

[10] = tested on: Wnt; assay: Wnt luciferase reporter assay (m-wnt3a induced); conditions: Homo sapiens, HeLa cells
Method: as §1

[11] = tested on: Hedgehog; assay: Hedgehog luciferase reporter assay (PMA induced); conditions: Homo sapiens, HeLa cells, compared to pTK as control, 6 h, read-out: percentage of luciferase induction Hdghog/PMA
Method: as §1

[12] = tested on: miR-21; assay: miR-21 luciferase reporter assay (no inducer); conditions: Homo sapiens, HeLa cells, 6 h, read-out: percentage of luciferase induction mi-R21/No Induction
Method: as §1

[13] = tested on: pTK control vector; assay: pTK control vector luciferase assay (minimal thymidine kinase promoter); conditions: Homo sapiens, HeLa cells, no inducer, read-out: percentage of luciferase induction pTK/No Induction
Method: as §1

[14] = tested on: cancer-related signaling pathways in HeLa cells; assay: Panel of luciferase reporter genes for cancer-related signaling pathways; conditions: HeLa cells; 30 µM
Method: as §1
The simulated gastric fluid was prepared as described in the United States Pharmacopoeia (USP, 1995) and consists of 0.2% w/v of NaCl and 0.7% v/v of hydrochloric acid at pH 1.2. Aliquots (48 µL) of SGF were placed in 1.5-mL microcentrifuge tubes and incubated in a water bath at 37 °C [35]. In addition, 2 µL of compound 6 (10 mg/mL in DMSO) was added to each of the SGF vials to start the digestion reaction. The incubation was continued for 60 min and the digestion was stopped with 150 µL of ice-cold cell culture media. The digested samples were used for the cytotoxicity and luciferase assays at different concentrations and the activities were compared between the untreated and SGF treated peptide samples.

[15] = compared to pTK as control, 4 h, read-out: percentage of luciferase induction Stat3/IL-6
[16] = compared to pTK as control, 4 h, read-out: percentage of luciferase induction Smad/TGF-β
[17] = Homo sapiens, compared to pTK as control, 4 h, read-out: percentage of luciferase induction NF-kB/PMA
[18] = compared to pTK as control, 4 h, read-out: percentage of luciferase induction Myc/PMA
[19] = compared to pTK as control, 4 h, read-out: percentage of luciferase induction Ets/PMA
[20] = compared to pTK as control, 6 h, read-out: percentage of luciferase induction Wnt/m-wnt 3a

SMILES	activity at 30 µM [1, 15]	activity at 30 µM [2, 16]	activity at 30 µM [3]	activity at 30 µM [4, 17]	activity at 30 µM [5]	activity at 30 µM [6, 18]	activity at 30 µM [7, 19]	activity at 30 µM [8]	activity at 30 µM [9]	activity at 30 µM [10, 20]	activity at 30 µM [11]	activity at 30 µM [12]	activity at 30 µM [13]	activity towards the signaling pathways (in words) [14]	also measured
CC1(C)CCC2=C(O1)C(=O)c1ccccc1C2=O [Compound 15, α-lapachone, reference compound]															activity at 5 µM ([1]; 5 µM, compared to pTK as control, 4 h, read-out: percentage of luciferase induction Stat3/IL-6): 22%; inhibition at 5 µM ([1]; 5 µM, read-out: inhibition of Stat3 induction): > 50%; activity at 5 µM ([2]; 5 µM, compared to pTK as control, 4 h, read-out: percentage of luciferase induction Smad/TGF-β): 27%; inhibition at 5 µM ([2]; 5 µM, read-out: inhibition of Smad induction): > 50%; activity at 5 µM ([3]; 5 µM): 88%; inhibition of NF-kB induction ([4]; 5 µM): more than 50%; activity at 5 µM ([4]; Homo sapiens, 5 µM, compared to pTK as control, 4 h, read-out: percentage of luciferase induction NF-kB/PMA): 44%; activity at 5 µM ([5]; 5 µM): 82%; activity at 5 µM ([6]; 5 µM, compared to pTK as control, 4 h, read-out: percentage of luciferase induction Myc/PMA): 44%; inhibition at 5 µM ([6]; 5 µM, read-out: inhibition of Myc induction): > 50%; activity at 5 µM ([7]; 5 µM, compared to pTK as control, 4 h, read-out: percentage of luciferase induction Ets/PMA): 45%; inhibition at 5 µM ([7]; 5 µM, read-out: inhibition of ETS induction): > 50%; activity at 5 µM ([8]; 5 µM): 85%; activity at 5 µM ([9]; 5 µM): 100%; activity at 5 µM ([10]; 5 µM, compared to pTK as control, 6 h, read-out: percentage of luciferase induction Wnt/m-wnt 3a): 53%; inhibition at 5 µM ([10]; 5 µM, read-out: inhibition of Wnt induction): > 50%; activity at 5 µM ([11]; 5 µM): 86%; activity at 5 µM ([12]; 5 µM): 127%; activity at 5 µM ([13]; 5 µM): 97%
Cc1cc(O)c2c(c1)C(=O)c1cc(O)cc(O)c1C2=O [Compound 3, emodin]	48%	46%	45%	45%	144%	46%	53%	424%	112%	11%	42%	309%	144%	inhibited the activation of several pathways with Wnt being the most sensitive	
O=C1c2cccc(O)c2C(=O)c2c(O)cccc21 [Compound 12, danthron, reference compound]	137%	101%	122%	62%	328%	115%	120%	126%	85%	122%	168%	156%	101%		
Cc1cc(O)c2c(c1)C(=O)c1cccc(O)c1C2=O [Compound 11, chrysophanol, reference compound]	171%	160%	115%	90%	251%	144%	130%	195%	102%	114%	214%	280%	183%		
O=C1c2ccccc2C(=O)c2c(O)c(O)cc(O)c21 [Compound 2, purpurin]	102%	163%	73%	65%	190%	61%	103%	194%	94%	77%	152%	259%	198%	least active among these three anthraquinones	
O=C1c2ccccc2C(=O)c2c(O)ccc(O)c21 [Compound 13, quinizarin, reference compound]	164%	159%	107%	62%	282%	81%	127%	198%	101%	97%	142%	171%	134%		
O=C1c2ccccc2C(=O)c2c1ccc(O)c2O [Compound 1, alizarin]	81%	109%	87%	60%	172%	61%	66%	106%	69%	46%	57%	141%	116%	selective inhibition of Wnt and Hedgehog signaling pathways	
O=C1c2cccc(O)c2C(=O)c2c(O)cc(CO)cc21 [Compound 14, aloe-emodin, reference compound]	132%	78%	138%		178%	95%	128%	157%	109%	129%	99%	167%	136%		
